Where “and” joins values, the source holds several entries; their conditions need not be identical. Identical values can stand only once.
Key:
[1] = test system: hair (degree of canities); assay: Effect of oral DHEA on canities, questionnaire at end of randomized double-blind clinical study versus placebo; type: in vivo, human; details: oral DHEA 50 mg daily, 6 months
Procedure: The evaluation was carried out using a randomized double-blind clinical study on 140 individuals. The inclusion criteria were as follows: healthy male volunteers free of any severe pathological condition and 60 to 80 years old.
The treatment consisted, for 6 months, of a daily dose of 50 mg of DHEA, taken in the morning, in the form of a breakable tablet, for half the individuals, or of its placebo for the other half of the individuals.
At the end of the 6 months of treatment, the individuals answered a series of questions concerning the state of their hair and the effect of the treatment on various parameters, in particular regarding their degree of canities (improvement, worsening or no change in the number of white hairs).
The statistical analysis is performed with Wilcoxon tests.

human skin = assay: Depigmenting power on the skin of DHEA administered orally, colorimetry b* (Minolta CR200 chromameter), randomized double-blind clinical study versus placebo; type: in vivo; details: oral DHEA 50 mg per day, 12 months, healthy female volunteers 60 to 80 years old; p=0.006, Wilcoxon test
Procedure: The evaluation was carried out using a randomized double-blind clinical study on 140 individuals. The inclusion criteria were as follows: healthy female volunteers free of any severe pathological condition and 60 to 80 years old.
The treatment consisted, for 12 months, of a daily dose of 50 mg of DHEA, taken in the morning, in the form of a breakable tablet, for half the individuals, or of a placebo for the other half of the individuals.
The skin pigmentation is measured at the start of treatment (TO) and after 12 months (T12), by colorimetry using a Minolta CR200 chromameter (Minolta, 365, route de Saint-Germain 78424 Carrières sur Seine).
This machine describes the colors in a three-dimensional space, using the system of coordinates L, a* and b* and recommended by the CIE in 1976. In this system, L* expresses the luminance or clarity of the color (0 corresponding to black and 100 to white), a is the component for separation between green (negative) and red (positive) and b*, which varies from blue (negative) to yellow (positive) expresses the pigmentation of the skin. The latter parameter was used to evaluate the change in skin color during the treatment.
The machine is calibrated on a standard “white” (surface provided with the machine) at the beginning of each day of measurement and the calibration is controlled throughout the day. […]

[2] = healthy male volunteers 60 to 80 years old, total 64

C[C@]12CC[C@H](O)CC1=CC[C@@H]1[C@@H]2CC[C@]2(C)C(=O)CC[C@@H]12 [DHEA, dehydroepiandrosterone]
degree of canities: Improvement (number of individuals, number of white hairs decreased) [1, 2]: 5
degree of canities: No change (number of individuals) [1, 2]: 59
degree of canities: Worsening (number of individuals) [1, 2]: no individual experienced a worsening and 0
overall effect on hair pigmentation versus placebo ([1]; difference between treatments significant, p=0.0094, Wilcoxon test): propigmenting effect on hair
skin pigmentation (b*) compared to the placebo group (human skin): significant decrease in pigmentation

— patent US20030083323A1, “Oral use of dehydroepiandrosterone and some of its derivatives as pigmentation regulators” (priority 2000, published 2003)
